Assay results as given in the kinase profiling compilation of Christmann-Franck et al. (2016).
Values joined by “and” are separate entries in the source; they are usually repeats but may differ in a detail not shown here. Equal values may be shown once.

How the values were obtained:
Test in all cases: KINOMEscan competition binding
Details in all cases: compound 10.0 µM
CSK (human) = CSK (human) (UniProt P41240)
BMPR1A (human) = BMPR1A (human) (UniProt P36894)
PIM2 (human) = PIM2 (human) (UniProt Q9P1W9)
Sequence of PIM2 (human) (Q9P1W9 whole entry, looked up): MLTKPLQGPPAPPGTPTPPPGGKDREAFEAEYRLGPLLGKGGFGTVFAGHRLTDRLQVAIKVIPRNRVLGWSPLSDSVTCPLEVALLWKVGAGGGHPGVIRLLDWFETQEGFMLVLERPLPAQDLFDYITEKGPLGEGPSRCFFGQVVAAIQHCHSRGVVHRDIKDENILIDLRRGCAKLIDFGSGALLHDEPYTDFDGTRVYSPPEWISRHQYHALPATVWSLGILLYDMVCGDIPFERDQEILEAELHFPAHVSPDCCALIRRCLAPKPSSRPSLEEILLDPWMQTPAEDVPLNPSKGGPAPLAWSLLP

TNNI3K (human) = TNNI3K (human) (UniProt Q59H18)
Sequence of TNNI3K (human) (Q59H18 whole entry, looked up): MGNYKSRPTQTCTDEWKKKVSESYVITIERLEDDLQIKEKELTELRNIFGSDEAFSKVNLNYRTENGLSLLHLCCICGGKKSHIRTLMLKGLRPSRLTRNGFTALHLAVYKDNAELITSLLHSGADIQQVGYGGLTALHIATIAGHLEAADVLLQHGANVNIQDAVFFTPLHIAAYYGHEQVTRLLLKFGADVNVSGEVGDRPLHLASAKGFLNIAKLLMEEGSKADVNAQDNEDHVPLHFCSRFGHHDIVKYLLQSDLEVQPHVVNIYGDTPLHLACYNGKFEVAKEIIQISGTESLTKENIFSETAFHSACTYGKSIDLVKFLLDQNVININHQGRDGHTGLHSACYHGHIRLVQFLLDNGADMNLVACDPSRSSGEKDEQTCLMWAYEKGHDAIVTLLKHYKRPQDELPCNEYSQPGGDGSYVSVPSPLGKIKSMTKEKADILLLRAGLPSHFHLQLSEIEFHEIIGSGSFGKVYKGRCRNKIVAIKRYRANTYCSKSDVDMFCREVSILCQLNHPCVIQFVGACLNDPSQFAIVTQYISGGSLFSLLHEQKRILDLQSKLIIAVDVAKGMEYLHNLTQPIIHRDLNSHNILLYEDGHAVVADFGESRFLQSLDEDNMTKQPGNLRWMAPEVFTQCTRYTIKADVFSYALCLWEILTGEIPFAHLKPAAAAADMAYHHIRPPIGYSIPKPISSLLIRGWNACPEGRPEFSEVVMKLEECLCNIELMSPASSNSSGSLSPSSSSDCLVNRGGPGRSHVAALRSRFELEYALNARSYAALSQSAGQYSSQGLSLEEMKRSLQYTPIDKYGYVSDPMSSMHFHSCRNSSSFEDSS

MARK1 (human) = MARK1 (human) (UniProt Q9P0L2)
ROCK1 (human) = ROCK1 (human) (UniProt Q13464)
PDGFRA (human) = PDGFRA (human) (UniProt P16234)
STK36 (human) = STK36 (human) (UniProt Q9NRP7)
MAPKAPK2 (human) = MAPKAPK2 (human) (UniProt P49137)
Sequence of MAPKAPK2 (human) (P49137 whole entry, looked up): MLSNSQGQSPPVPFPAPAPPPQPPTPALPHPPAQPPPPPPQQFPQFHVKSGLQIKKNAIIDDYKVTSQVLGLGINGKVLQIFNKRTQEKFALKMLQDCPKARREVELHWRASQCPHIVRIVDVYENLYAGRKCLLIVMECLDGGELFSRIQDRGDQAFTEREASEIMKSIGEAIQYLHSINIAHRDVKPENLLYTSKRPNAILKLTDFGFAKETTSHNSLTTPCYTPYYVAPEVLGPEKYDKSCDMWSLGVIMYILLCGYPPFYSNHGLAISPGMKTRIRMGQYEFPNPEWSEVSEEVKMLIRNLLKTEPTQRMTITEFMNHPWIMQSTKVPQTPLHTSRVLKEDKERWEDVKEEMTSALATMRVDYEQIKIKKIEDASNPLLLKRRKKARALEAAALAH

CLK1 (human) = CLK1 (human) (UniProt P49759)
MAP3K1 (human) = MAP3K1 (human) (UniProt Q13233)
CDK3 (human) = CDK3 (human) (UniProt Q00526)
RET (human) = RET (human) (UniProt P07949)
[1] = target: TYK2 JH2 pseudokinase (human) (UniProt P29597)
HIPK1 (human) = HIPK1 (human) (UniProt Q86Z02)
SIK1 (human) = SIK1 (human) (UniProt P57059)
SRPK3 (human) = SRPK3 (human) (UniProt Q9UPE1)
MAP3K7 (human) = MAP3K7 (human) (UniProt O43318)
PIM3 (human) = PIM3 (human) (UniProt Q86V86)
IKBKB (human) = IKBKB (human) (UniProt O14920)
NLK (human) = NLK (human) (UniProt Q9UBE8)
FGFR1 (human) = FGFR1 (human) (UniProt P11362)
CDK15 (human) = CDK15 (human) (UniProt Q96Q40)
STK25 (human) = STK25 (human) (UniProt O00506)
PRKAA2 (human) = PRKAA2 (human) (UniProt P54646)
ACVR1B (human) = ACVR1B (human) (UniProt P36896)
TIE1 (human) = TIE1 (human) (UniProt P35590)
MAPK4 (human) = MAPK4 (human) (UniProt P31152)
Sequence of MAPK4 (human) (P31152 whole entry, looked up): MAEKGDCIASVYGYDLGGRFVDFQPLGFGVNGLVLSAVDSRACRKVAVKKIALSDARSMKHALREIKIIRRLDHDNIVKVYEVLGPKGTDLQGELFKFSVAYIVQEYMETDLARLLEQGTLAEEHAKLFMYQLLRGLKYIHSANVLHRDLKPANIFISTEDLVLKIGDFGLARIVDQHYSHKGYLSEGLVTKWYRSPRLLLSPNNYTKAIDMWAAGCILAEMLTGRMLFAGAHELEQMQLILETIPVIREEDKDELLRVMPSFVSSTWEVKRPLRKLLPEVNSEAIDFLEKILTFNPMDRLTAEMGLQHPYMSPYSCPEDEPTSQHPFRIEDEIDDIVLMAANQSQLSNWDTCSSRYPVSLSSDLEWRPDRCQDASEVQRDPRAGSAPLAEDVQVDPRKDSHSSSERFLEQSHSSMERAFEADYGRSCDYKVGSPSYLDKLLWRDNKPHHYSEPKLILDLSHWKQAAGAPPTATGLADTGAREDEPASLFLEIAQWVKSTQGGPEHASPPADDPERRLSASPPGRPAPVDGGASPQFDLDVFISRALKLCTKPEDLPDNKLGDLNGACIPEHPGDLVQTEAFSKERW

MAP3K4 (human) = MAP3K4 (human) (UniProt Q9Y6R4)
LRRK2 (human) = LRRK2 (human) (UniProt Q5S007)
FLT3 (human) = FLT3 (human) (UniProt P36888)
Sequence of FLT3 (human) (P36888 whole entry, looked up): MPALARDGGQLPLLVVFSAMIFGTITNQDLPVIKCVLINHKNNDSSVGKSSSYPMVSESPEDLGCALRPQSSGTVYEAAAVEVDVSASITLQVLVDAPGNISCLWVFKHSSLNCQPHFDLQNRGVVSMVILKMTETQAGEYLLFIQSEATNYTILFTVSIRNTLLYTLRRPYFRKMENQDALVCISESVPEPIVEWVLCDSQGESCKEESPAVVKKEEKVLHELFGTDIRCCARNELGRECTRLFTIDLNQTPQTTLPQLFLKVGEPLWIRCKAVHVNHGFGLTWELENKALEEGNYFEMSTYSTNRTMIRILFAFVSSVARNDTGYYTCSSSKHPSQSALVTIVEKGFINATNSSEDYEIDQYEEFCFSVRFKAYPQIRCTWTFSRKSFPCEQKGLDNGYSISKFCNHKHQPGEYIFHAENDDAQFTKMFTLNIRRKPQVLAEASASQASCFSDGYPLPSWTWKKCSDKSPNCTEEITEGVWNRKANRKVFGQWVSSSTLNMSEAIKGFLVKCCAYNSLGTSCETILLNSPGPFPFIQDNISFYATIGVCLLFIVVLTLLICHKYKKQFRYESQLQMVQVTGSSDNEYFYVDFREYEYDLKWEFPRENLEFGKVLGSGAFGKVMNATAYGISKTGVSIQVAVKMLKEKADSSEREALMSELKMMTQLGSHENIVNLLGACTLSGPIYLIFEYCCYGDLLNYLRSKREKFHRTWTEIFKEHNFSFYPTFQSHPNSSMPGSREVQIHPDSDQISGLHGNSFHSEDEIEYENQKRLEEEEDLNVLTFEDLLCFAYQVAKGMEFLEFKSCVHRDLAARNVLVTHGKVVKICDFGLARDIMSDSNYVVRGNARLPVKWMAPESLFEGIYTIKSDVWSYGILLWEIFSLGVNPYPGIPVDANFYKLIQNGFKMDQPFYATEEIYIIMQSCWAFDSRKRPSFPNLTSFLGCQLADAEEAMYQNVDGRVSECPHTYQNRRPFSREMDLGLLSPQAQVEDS

GRK4 (human) = GRK4 (human) (UniProt P32298)
Sequence of GRK4 (human) (P32298 whole entry, looked up): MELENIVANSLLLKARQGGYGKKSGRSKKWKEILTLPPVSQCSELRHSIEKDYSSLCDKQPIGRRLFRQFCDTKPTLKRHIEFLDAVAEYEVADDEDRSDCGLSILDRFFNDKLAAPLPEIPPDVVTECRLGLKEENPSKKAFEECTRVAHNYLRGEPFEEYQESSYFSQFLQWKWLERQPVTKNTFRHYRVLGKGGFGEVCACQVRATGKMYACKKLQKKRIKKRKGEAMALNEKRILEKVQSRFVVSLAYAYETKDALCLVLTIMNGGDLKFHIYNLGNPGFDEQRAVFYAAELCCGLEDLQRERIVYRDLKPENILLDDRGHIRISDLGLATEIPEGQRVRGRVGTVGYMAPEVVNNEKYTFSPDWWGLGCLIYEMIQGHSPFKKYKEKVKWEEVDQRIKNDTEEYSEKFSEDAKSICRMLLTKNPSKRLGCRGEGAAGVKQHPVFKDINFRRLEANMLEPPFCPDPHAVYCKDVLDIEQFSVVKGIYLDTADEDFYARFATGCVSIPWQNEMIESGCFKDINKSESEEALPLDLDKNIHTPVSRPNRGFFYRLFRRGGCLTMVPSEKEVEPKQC

CDC42BPA (human) = CDC42BPA (human) (UniProt Q5VT25)
PRKCE (human) = PRKCE (human) (UniProt Q02156)
Sequence of PRKCE (human) (Q02156 whole entry, looked up): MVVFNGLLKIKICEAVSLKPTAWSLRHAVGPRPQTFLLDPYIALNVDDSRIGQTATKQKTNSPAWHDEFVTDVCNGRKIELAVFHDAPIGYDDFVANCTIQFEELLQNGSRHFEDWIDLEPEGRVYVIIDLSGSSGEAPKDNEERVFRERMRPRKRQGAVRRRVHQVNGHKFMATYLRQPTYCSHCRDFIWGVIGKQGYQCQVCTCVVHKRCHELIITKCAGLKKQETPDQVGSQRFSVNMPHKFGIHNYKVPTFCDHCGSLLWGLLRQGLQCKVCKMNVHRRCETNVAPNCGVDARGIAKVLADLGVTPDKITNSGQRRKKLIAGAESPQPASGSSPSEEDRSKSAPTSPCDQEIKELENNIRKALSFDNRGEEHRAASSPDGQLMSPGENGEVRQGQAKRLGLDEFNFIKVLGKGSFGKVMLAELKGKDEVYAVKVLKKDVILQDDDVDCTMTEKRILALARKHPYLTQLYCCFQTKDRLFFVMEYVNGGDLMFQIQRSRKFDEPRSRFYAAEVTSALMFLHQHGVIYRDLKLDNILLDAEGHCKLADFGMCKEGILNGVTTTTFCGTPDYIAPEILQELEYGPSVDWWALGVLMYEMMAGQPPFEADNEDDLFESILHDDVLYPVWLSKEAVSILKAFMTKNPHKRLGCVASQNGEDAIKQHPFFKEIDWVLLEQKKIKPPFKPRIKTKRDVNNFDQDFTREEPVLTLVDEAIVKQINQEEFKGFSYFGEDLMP

STK17A (human) = STK17A (human) (UniProt Q9UEE5)
MAPK10 (human) = MAPK10 (human) (UniProt P53779)
MAP3K5 (human) = MAP3K5 (human) (UniProt Q99683)
PRKG2 (human) = PRKG2 (human) (UniProt Q13237)
PRKAA1 (human) = PRKAA1 (human) (UniProt Q13131)
Sequence of PRKAA1 (human) (Q13131 whole entry, looked up): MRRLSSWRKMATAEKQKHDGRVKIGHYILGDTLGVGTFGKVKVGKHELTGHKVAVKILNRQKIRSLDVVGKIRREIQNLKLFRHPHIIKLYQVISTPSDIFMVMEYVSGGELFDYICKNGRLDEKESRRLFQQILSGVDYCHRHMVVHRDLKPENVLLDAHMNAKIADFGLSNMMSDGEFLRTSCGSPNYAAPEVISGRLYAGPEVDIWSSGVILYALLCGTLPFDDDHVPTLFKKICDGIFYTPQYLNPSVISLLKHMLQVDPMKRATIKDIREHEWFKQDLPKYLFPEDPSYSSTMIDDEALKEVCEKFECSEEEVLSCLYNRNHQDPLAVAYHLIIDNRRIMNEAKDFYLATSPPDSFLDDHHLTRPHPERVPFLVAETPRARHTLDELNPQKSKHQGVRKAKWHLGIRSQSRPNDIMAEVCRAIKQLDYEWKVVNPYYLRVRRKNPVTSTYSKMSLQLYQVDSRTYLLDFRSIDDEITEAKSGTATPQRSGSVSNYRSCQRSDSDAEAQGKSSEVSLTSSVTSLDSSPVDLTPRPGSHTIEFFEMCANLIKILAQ

TAOK3 (human) = TAOK3 (human) (UniProt Q9H2K8)

SMILES | kinase still bound, per cent of control (CSK (human)) | kinase still bound, per cent of control (BMPR1A (human)) | kinase still bound, per cent of control (PIM2 (human)) | kinase still bound, per cent of control (TNNI3K (human)) | kinase still bound, per cent of control (MARK1 (human)) | kinase still bound, per cent of control (ROCK1 (human)) | kinase still bound, per cent of control (PDGFRA (human)) | kinase still bound, per cent of control (STK36 (human)) | kinase still bound, per cent of control (MAPKAPK2 (human)) | kinase still bound, per cent of control (CLK1 (human)) | kinase still bound, per cent of control (MAP3K1 (human)) | kinase still bound, per cent of control (CDK3 (human)) | kinase still bound, per cent of control (RET (human)) | kinase still bound, per cent of control [1] | kinase still bound, per cent of control (HIPK1 (human)) | kinase still bound, per cent of control (SIK1 (human)) | kinase still bound, per cent of control (SRPK3 (human)) | kinase still bound, per cent of control (MAP3K7 (human)) | kinase still bound, per cent of control (PIM3 (human)) | kinase still bound, per cent of control (IKBKB (human)) | further results
CCN1CCN(C(=O)Cc2ccc(Nc3ncc(F)c(Nc4ccc(C(=O)Nc5ccccc5Cl)cc4)n3)cc2)CC1 | 73% | 3.3% | 100% | 24% | 51% | 81% | 38% | 2.1% | 100% | 22% | 97% | 92% | 1.8% | 12% | 3.2% | 28% | 7.8% | 2.9% | 67% | 27% | kinase still bound, per cent of control (NLK (human)): 98%; kinase still bound, per cent of control (FGFR1 (human)): 14%; kinase still bound, per cent of control (CDK15 (human)): 64%; kinase still bound, per cent of control (STK25 (human)): 35%; kinase still bound, per cent of control (PRKAA2 (human)): 39%; kinase still bound, per cent of control (ACVR1B (human)): 45%; kinase still bound, per cent of control (TIE1 (human)): 10%; kinase still bound, per cent of control (MAPK4 (human)): 82%; kinase still bound, per cent of control (MAP3K4 (human)): 83%; kinase still bound, per cent of control (LRRK2 (human)): 73%; kinase still bound, per cent of control (FLT3 (human)): 0.7%; kinase still bound, per cent of control (GRK4 (human)): 8.8%; kinase still bound, per cent of control (CDC42BPA (human)): 100%; kinase still bound, per cent of control (PRKCE (human)): 100%; kinase still bound, per cent of control (STK17A (human)): 2.6%; kinase still bound, per cent of control (MAPK10 (human)): 0.8%; kinase still bound, per cent of control (MAP3K5 (human)): 100%; kinase still bound, per cent of control (PRKG2 (human)): 62%; kinase still bound, per cent of control (PRKAA1 (human)): 32%; kinase still bound, per cent of control (TAOK3 (human)): 69%
O=C1NC(=O)/C(=C/c2ccc3nccc(-c4ccncc4)c3c2)S1 | 80% | 2% | 1% | 79% | 74% | 51% | 67% | 89% | 74% | 0% | 60% | 87% | 98% | 51% | 6.9% | 96% | 31% | 62% | 2.4% | 34% | kinase still bound, per cent of control (NLK (human)): 84%; kinase still bound, per cent of control (FGFR1 (human)): 81%; kinase still bound, per cent of control (CDK15 (human)): 9.6%; kinase still bound, per cent of control (STK25 (human)): 75%; kinase still bound, per cent of control (PRKAA2 (human)): 93%; kinase still bound, per cent of control (ACVR1B (human)): 51%; kinase still bound, per cent of control (TIE1 (human)): 100%; kinase still bound, per cent of control (MAPK4 (human)): 100%; kinase still bound, per cent of control (MAP3K4 (human)): 96%; kinase still bound, per cent of control (LRRK2 (human)): 62%; kinase still bound, per cent of control (FLT3 (human)): 39% and 61%; kinase still bound, per cent of control (GRK4 (human)): 47%; kinase still bound, per cent of control (CDC42BPA (human)): 90%; kinase still bound, per cent of control (PRKCE (human)): 38%; kinase still bound, per cent of control (STK17A (human)): 0.2%; kinase still bound, per cent of control (MAPK10 (human)): 26%; kinase still bound, per cent of control (MAP3K5 (human)): 58%; kinase still bound, per cent of control (PRKG2 (human)): 56%; kinase still bound, per cent of control (PRKAA1 (human)): 88%; kinase still bound, per cent of control (TAOK3 (human)): 13%
